Source: patent US9095134B2, “Antimicrobial compositions containing cationic active ingredients and quaternary sugar derived surfactants” (priority 2010, dated 2015)

Assays:
E. coli = test: Time kill method (ASTM E 2315), log reduction of E. coli; type: cell-based, Escherichia coli (ATCC 112229); conditions: 0.5% ADBAC Quat
Protocol: (§1) • (a) Determination of Time Kill Activity: The activity of antimicrobial compositions was measured by the time kill method [ASTM E 2315 Standard Guide for Assessment of Antimicrobial Activity Using a Time Kill Procedure], whereby the survival of challenged organisms exposed to an antimicrobial test composition is […] as a function of time. In this test, a diluted aliquot of the composition is brought into contact with a known population of test bacteria for a specified time period at a specified temperature. The test composition is neutralized at the end of the time period, which arrests the antimicrobial activity of the composition. The percent or, alternatively, log reduction from the original bacteria population is calculated. In general, the time kill method is known to those skilled in the art. In addition, comparative data on the foam profile of representative systems is shown. • (b) The composition can be tested at any concentration from 0-100%. The choice of which concentration to use is at the discretion of the investigator, and suitable concentrations are readily determined by those skilled in the art. All testing if performed in triplicate, the results are combined, and the average log reduction is reported. • (c) The choice of contact time period also is at the discretion of the investigator. Any contact time period can be chosen. Typical contact times range from 15 second to 5 minutes, with 30 seconds and 1 minute being typical contact times. The contact temperature also can be any temperature, typically room temperature, or about 25 degrees Celsius. • (d) The microbial suspension, or test inoculum, is prepared by growing a microbial culture on any appropriate solid media (e.g., agar). The microbial population then is washed from the agar with sterile physiological saline and the population of the microbial suspension is adjusted to about 10^8 colony forming units per ml (cfu/ml). • (e) The table below lists the test microbial cultures used in the following tests and includes the name of the bacteria, the ATCC (American Type Culture Collection) identification number, and the abbreviation for the name of the organism used hereafter.
(§2) S. aureus is a Gram positive bacteria, whereas, E. coli is a Gram negative bacteria.
(§3) The log reduction is calculated using the formula: Log reduction=log10(numbers control)−log10(test sample survivors). Foam Height Determination

S. aureus = test: Time kill method (ASTM E 2315), log reduction of S. aureus; type: cell-based, S. aureus (ATCC 6538); conditions: 0.5% ADBAC Quat
Protocol: as §1, §2, §3

[1] = 1.95% w/w foam boosting agent, 1.25% Poly Trimoniumhydroxypropyl Cocoglucosides Chloride, 30 seconds exposure
[2] = 3.0% w/w foam boosting agent, 1.25% Poly Trimoniumhydroxypropyl Cocoglucosides Chloride, 30 seconds exposure
[3] = 4.2% w/w foam boosting agent, 1.25% Poly Trimoniumhydroxypropyl Cocoglucosides Chloride, 30 seconds exposure
[4] = quaternized sugar-derived surfactant 1.25% w/w, 1.95% alkyl dimethyl amine oxide, 30 second exposure

Substance | E. coli Log Reduction (E. coli; [4]) [log] | S. aureus Log Reduction (S. aureus; [4]) [log] | also measured
Alkyl Dimethyl Amine Oxide | – | – | E. coli Log Reduction (E. coli; [1]): >5.5 log; E. coli Log Reduction (E. coli; [2]): >5.5 log; E. coli Log Reduction (E. coli; [3]): >5.5 log; S. aureus Log Reduction (S. aureus; [1]): >5.5 log; S. aureus Log Reduction (S. aureus; [2]): >5.5 log; S. aureus Log Reduction (S. aureus; [3]): >5.5 log
Cocoglucosides Hydroxypropyl-trimonium Chloride [TM8610] | >5.0 | >5.0 | –
Lauridimonium-hydroxypropyl Cocoglucosides Chloride [L8610] | >5.0 | >5.0 | –
Lauridimonium-hydroxypropyl Laurylglucosides Chloride [L1210] | >5.0 | >5.0 | –
Laurylglucosides Hydroxypropyl-trimonium Chloride [TM1212] | >5.0 | >5.0 | –
Stearyldimonium-hydroxypropyl Laurylglucosides Chloride [S1218] | >5.0 | >5.0 | –
